According to patent US20240075093A1, “COMPOSITIONS AND METHODS OF TREATING A PI3K MEDIATED DISEASE” (VIRGINIA TECH INTELLECTUAL PROPERTIES, INC., priority 2020, published 2024):

Tests used:
[1] = test system: SF295 cells; assay: MTS cell viability assay; format: cell-based; settings: 20 uM TGX-221 and 50 uM TMZ, 4 days
Procedure: (FIG. 12A) p110βC2in. CPP: cell-penetrating peptide. Simulated p110βC2in (rainbow as represented in greyscale) is shown. (FIG. 12B) FITC-p110βC2in in LN229/GSCs was imaged using a fluorescence microscope. Upper: FITC; lower: bright view. (FIG. 12C) PI3K/AKT activity affected by 100 μM p110βC2in (+) or C2Scramble-1 (−). (FIG. 12D) MTS Cell viability assay. Cells were treated with 50 μM peptides for 4 days. Student t test was used to determine P values.
Cell viability was measured by the MTS assay. P values were determined using the student t test or one-way ANOVA. Error bars represent three independent experiments.
This scheme has been repeated in experiments presented hereafter. Cell viability was determined using the MTS viability assay. Percentages of cell viability were obtained by normalizing the MTS readings of treatment groups to that of DMSO group. (FIG. 34B) Scores of Excess Over Bliss (EOB) calculated using the Bliss Independence model. The drug combination is synergistic if EOB is more than 0%, additive if EOB equals to 0%, or antagonistic if EOB is less than 0%. […] (FIG. 34D) EOB scores of drug combinations in LN229 and VTC-001 cells. (FIG. 34E) Caspase 3/7 activity in VTC-103 and VTC-001 cells. The activity of cleaved caspase 3/7 (active) was determined using a luminescence assay. Shown are luminescence readings. (FIG. 34F) EOB scores of drug combinations in VTC-103 and VTC-001 cells. […] SF295 cells were subcutaneously injected into immuno-deficient mice. […] Tumor volumes are shown. […] Cell viability was determined using the MTS viability assay. Percentages of cell viability were obtained by normalizing the MTS readings of treatment groups to that of shNS group. […]
Cell viability was determined by the MTS cell viability assay (Promega) as described previously 21,24-27. […] At each hour time point, the absorbance at 490 nm was measured using a FilterMax F3 microplate reader (Molecular Devices, LLC) according to the manufacturer's instructions. Percent cell viability was obtained by dividing the absorbance of treatment groups to those of untreated and respective vehicle control groups.

[2] = test system: tumor growth in mice; assay: GBM tumor growth in mice; format: in vivo

SMILES: Cc1cc(C(C)Nc2ccccc2)c2nc(N3CCOCC3)cc(=O)n2c1 (centres unmarked) [TGX-221]
- TMZ sensitivity [1]: increased TMZ sensitivity
- tumor growth in mice [2]: slow down tumor growth
